# Test system: A498
# Assay: Cell panel screen (CellTiter-Glo)
# Assay type: cell-based, human
# Details: A498 (listed under Lung), 20 micromolar, 72 hrs
# Method in brief: (§1)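 Here, cancer cells cultured in medium with 10% FBS are treated for 72 h with each compound at 20 μM final. Viability is measured by ATP-dependent luminescence, and growth inhibition is calculated as a percentage against vehicle-only wells minus cell-free background.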
row,Structure (SMILES),Percent Inhibition [%]
1,O=C1c2c(O)cc(O)cc2OC(c2ccc(O)c(O)c2)C1O (stereo not drawn) [gl-34],2

# Test system: A704
# Assay: Cell panel screen (CellTiter-Glo)
# Assay type: cell-based, human
# Details: A704 (Kidney), 20 micromolar, 72 hrs
# Method in brief: as §1
row,Structure (SMILES),Percent Inhibition [%]
1,O=C1c2c(O)cc(O)cc2OC(c2ccc(O)c(O)c2)C1O (stereo not drawn) [gl-34],-13

# Test system: BT-474
# Assay: Cell panel screen (CellTiter-Glo)
# Assay type: cell-based, human
# Details: BT-474 (Breast), 20 micromolar, 72 hrs
# Method in brief: as §1
row,Structure (SMILES),Percent Inhibition [%]
1,O=C1c2c(O)cc(O)cc2OC(c2ccc(O)c(O)c2)C1O (stereo not drawn) [gl-34],-15

# Test system: BT-549
# Assay: Cell panel screen (CellTiter-Glo)
# Assay type: cell-based, human
# Details: BT-549 (Breast), 20 micromolar, 72 hrs
# Method in brief: as §1
row,Structure (SMILES),Percent Inhibition [%]
1,O=C1c2c(O)cc(O)cc2OC(c2ccc(O)c(O)c2)C1O (stereo not drawn) [gl-34],-9

# Test system: Bel-7402
# Assay: Cell panel screen (CellTiter-Glo)
# Assay type: cell-based, human
# Details: Bel-7402 (Liver), 20 micromolar, 72 hrs
# Method in brief: as §1
row,Structure (SMILES),Percent Inhibition [%]
1,O=C1c2c(O)cc(O)cc2OC(c2ccc(O)c(O)c2)C1O (stereo not drawn) [gl-34],-9

# Test system: C3A
# Assay: Cell panel screen (CellTiter-Glo)
# Assay type: cell-based, human
# Details: C3A (Liver), 20 micromolar, 72 hrs
# Method in brief: as §1
row,Structure (SMILES),Percent Inhibition [%]
1,O=C1c2c(O)cc(O)cc2OC(c2ccc(O)c(O)c2)C1O (stereo not drawn) [gl-34],-13

# Test system: C8166
# Assay: Cell panel screen (CellTiter-Glo)
# Assay type: cell-based, human
# Details: C8166 (Leukemia), 20 micromolar, 72 hrs
# Method in brief: as §1
row,Structure (SMILES),Percent Inhibition [%]
1,O=C1c2c(O)cc(O)cc2OC(c2ccc(O)c(O)c2)C1O (stereo not drawn) [gl-34],7

# Test system: CCF-STTG1
# Assay: Cell panel screen (CellTiter-Glo)
# Assay type: cell-based, human
# Details: CCF-STTG1 (Brain), 20 micromolar, 72 hrs
# Method in brief: as §1
row,Structure (SMILES),Percent Inhibition [%]
1,O=C1c2c(O)cc(O)cc2OC(c2ccc(O)c(O)c2)C1O (stereo not drawn) [gl-34],4

# Test system: CW-2
# Assay: Cell panel screen (CellTiter-Glo)
# Assay type: cell-based, human
# Details: CW-2 (Colon), 20 micromolar, 72 hrs
# Method in brief: as §1
row,Structure (SMILES),Percent Inhibition [%]
1,O=C1c2c(O)cc(O)cc2OC(c2ccc(O)c(O)c2)C1O (stereo not drawn) [gl-34],7

# Test system: ChaGo-K-1
# Assay: Cell panel screen (CellTiter-Glo)
# Assay type: cell-based, human
# Details: ChaGo-K-1 (Lung), 20 micromolar, 72 hrs
# Method in brief: as §1
row,Structure (SMILES),Percent Inhibition [%]
1,O=C1c2c(O)cc(O)cc2OC(c2ccc(O)c(O)c2)C1O (stereo not drawn) [gl-34],-3

# Test system: Colo 205
# Assay: Cell panel screen (CellTiter-Glo)
# Assay type: cell-based, human
# Details: Colo 205, 20 micromolar, 72 hrs
# Method in brief: as §1
row,Structure (SMILES),Percent Inhibition [%]
1,O=C1c2c(O)cc(O)cc2OC(c2ccc(O)c(O)c2)C1O (stereo not drawn) [gl-34],1

# Test system: HCC1395
# Assay: Cell panel screen (CellTiter-Glo)
# Assay type: cell-based, human
# Details: HCC1395 (Breast), 20 micromolar, 72 hrs
# Method in brief: as §1
row,Structure (SMILES),Percent Inhibition [%]
1,O=C1c2c(O)cc(O)cc2OC(c2ccc(O)c(O)c2)C1O (stereo not drawn) [gl-34],16

# Test system: HCC1569
# Assay: Cell panel screen (CellTiter-Glo)
# Assay type: cell-based, human
# Details: HCC1569 (Breast), 20 micromolar, 72 hrs
# Method in brief: as §1
row,Structure (SMILES),Percent Inhibition [%]
1,O=C1c2c(O)cc(O)cc2OC(c2ccc(O)c(O)c2)C1O (stereo not drawn) [gl-34],3

# Test system: HCC1599
# Assay: Cell panel screen (CellTiter-Glo)
# Assay type: cell-based, human
# Details: HCC1599 (Breast), 20 micromolar, 72 hrs
# Method in brief: as §1
row,Structure (SMILES),Percent Inhibition [%]
1,O=C1c2c(O)cc(O)cc2OC(c2ccc(O)c(O)c2)C1O (stereo not drawn) [gl-34],42

# Test system: HCC1937
# Assay: Cell panel screen (CellTiter-Glo)
# Assay type: cell-based, human
# Details: HCC1937 (Breast), 20 micromolar, 72 hrs
# Method in brief: as §1
row,Structure (SMILES),Percent Inhibition [%]
1,O=C1c2c(O)cc(O)cc2OC(c2ccc(O)c(O)c2)C1O (stereo not drawn) [gl-34],8

# Test system: HEC-1-A
# Assay: Cell panel screen (CellTiter-Glo)
# Assay type: cell-based, human
# Details: HEC-1-A (Uterus), 20 micromolar, 72 hrs
# Method in brief: as §1
row,Structure (SMILES),Percent Inhibition [%]
1,O=C1c2c(O)cc(O)cc2OC(c2ccc(O)c(O)c2)C1O (stereo not drawn) [gl-34],-5

# Test system: HGC-27
# Assay: Cell panel screen (CellTiter-Glo)
# Assay type: cell-based, human
# Details: HGC-27 (Stomach), 20 micromolar, 72 hrs
# Method in brief: as §1
row,Structure (SMILES),Percent Inhibition [%]
1,O=C1c2c(O)cc(O)cc2OC(c2ccc(O)c(O)c2)C1O (stereo not drawn) [gl-34],-8

# Test system: HPAF-II
# Assay: Cell panel screen (CellTiter-Glo)
# Assay type: cell-based, human
# Details: HPAF-II (Pancreas), 20 micromolar, 72 hrs
# Method in brief: as §1
row,Structure (SMILES),Percent Inhibition [%]
1,O=C1c2c(O)cc(O)cc2OC(c2ccc(O)c(O)c2)C1O (stereo not drawn) [gl-34],6

# Test system: HT-1197
# Assay: Cell panel screen (CellTiter-Glo)
# Assay type: cell-based, human
# Details: HT-1197 (Urinary bladder), 20 micromolar, 72 hrs
# Method in brief: as §1
row,Structure (SMILES),Percent Inhibition [%]
1,O=C1c2c(O)cc(O)cc2OC(c2ccc(O)c(O)c2)C1O (stereo not drawn) [gl-34],10

# Test system: J82
# Assay: Cell panel screen (CellTiter-Glo)
# Assay type: cell-based, human
# Details: J82 (Urinary bladder), 20 micromolar, 72 hrs
# Method in brief: as §1
row,Structure (SMILES),Percent Inhibition [%]
1,O=C1c2c(O)cc(O)cc2OC(c2ccc(O)c(O)c2)C1O (stereo not drawn) [gl-34],3

# Test system: M059J
# Assay: Cell panel screen (CellTiter-Glo)
# Assay type: cell-based, human
# Details: M059J (Brain), 20 micromolar, 72 hrs
# Method in brief: as §1
row,Structure (SMILES),Percent Inhibition [%]
1,O=C1c2c(O)cc(O)cc2OC(c2ccc(O)c(O)c2)C1O (stereo not drawn) [gl-34],9

# Test system: MSTO-211-H
# Assay: Cell panel screen (CellTiter-Glo)
# Assay type: cell-based, human
# Details: MSTO-211-H (Lung), 20 micromolar, 72 hrs
# Method in brief: as §1
row,Structure (SMILES),Percent Inhibition [%]
1,O=C1c2c(O)cc(O)cc2OC(c2ccc(O)c(O)c2)C1O (stereo not drawn) [gl-34],-9

# Test system: NCI-H1623
# Assay: Cell panel screen (CellTiter-Glo)
# Assay type: cell-based, human
# Details: NCI-H1623 (Lung), 20 micromolar, 72 hrs
# Method in brief: as §1
row,Structure (SMILES),Percent Inhibition [%]
1,O=C1c2c(O)cc(O)cc2OC(c2ccc(O)c(O)c2)C1O (stereo not drawn) [gl-34],-7

# Test system: NCI-H1694
# Assay: Cell panel screen (CellTiter-Glo)
# Assay type: cell-based, human
# Details: NCI-H1694 (Lung), 20 micromolar, 72 hrs
# Method in brief: as §1
row,Structure (SMILES),Percent Inhibition [%]
1,O=C1c2c(O)cc(O)cc2OC(c2ccc(O)c(O)c2)C1O (stereo not drawn) [gl-34],10

# Test system: NCI-H1770
# Assay: Cell panel screen (CellTiter-Glo)
# Assay type: cell-based, human
# Details: NCI-H1770 (Lung), 20 micromolar, 72 hrs
# Method in brief: as §1
row,Structure (SMILES),Percent Inhibition [%]
1,O=C1c2c(O)cc(O)cc2OC(c2ccc(O)c(O)c2)C1O (stereo not drawn) [gl-34],0

# Test system: NCI-H2347
# Assay: Cell panel screen (CellTiter-Glo)
# Assay type: cell-based, human
# Details: NCI-H2347 (Lung), 20 micromolar, 72 hrs
# Method in brief: as §1
row,Structure (SMILES),Percent Inhibition [%]
1,O=C1c2c(O)cc(O)cc2OC(c2ccc(O)c(O)c2)C1O (stereo not drawn) [gl-34],2

# Test system: NCI-H2405
# Assay: Cell panel screen (CellTiter-Glo)
# Assay type: cell-based, human
# Details: NCI-H2405 (Lung), 20 micromolar, 72 hrs
# Method in brief: as §1
row,Structure (SMILES),Percent Inhibition [%]
1,O=C1c2c(O)cc(O)cc2OC(c2ccc(O)c(O)c2)C1O (stereo not drawn) [gl-34],-5

# Test system: NCI-H28
# Assay: Cell panel screen (CellTiter-Glo)
# Assay type: cell-based, human
# Details: NCI-H28 (Lung), 20 micromolar, 72 hrs
# Method in brief: as §1
row,Structure (SMILES),Percent Inhibition [%]
1,O=C1c2c(O)cc(O)cc2OC(c2ccc(O)c(O)c2)C1O (stereo not drawn) [gl-34],-11

# Test system: NCI-H524
# Assay: Cell panel screen (CellTiter-Glo)
# Assay type: cell-based, human
# Details: NCI-H524 (Lung), 20 micromolar, 72 hrs
# Method in brief: as §1
row,Structure (SMILES),Percent Inhibition [%]
1,O=C1c2c(O)cc(O)cc2OC(c2ccc(O)c(O)c2)C1O (stereo not drawn) [gl-34],-31

# Test system: Panc 03.27
# Assay: Cell panel screen (CellTiter-Glo)
# Assay type: cell-based, human
# Details: Panc 03.27 (Pancreas), 20 micromolar, 72 hrs
# Method in brief: as §1
row,Structure (SMILES),Percent Inhibition [%]
1,O=C1c2c(O)cc(O)cc2OC(c2ccc(O)c(O)c2)C1O (stereo not drawn) [gl-34],9

# Test system: RL95
# Assay: Cell panel screen (CellTiter-Glo)
# Assay type: cell-based, human
# Details: RL95 (Uterus), 20 micromolar, 72 hrs
# Method in brief: as §1
row,Structure (SMILES),Percent Inhibition [%]
1,O=C1c2c(O)cc(O)cc2OC(c2ccc(O)c(O)c2)C1O (stereo not drawn) [gl-34],3

# Test system: SW13
# Assay: Cell panel screen (CellTiter-Glo)
# Assay type: cell-based, human
# Details: SW13 (Adrenal gland), 20 micromolar, 72 hrs
# Method in brief: as §1
row,Structure (SMILES),Percent Inhibition [%]
1,O=C1c2c(O)cc(O)cc2OC(c2ccc(O)c(O)c2)C1O (stereo not drawn) [gl-34],-13

# Test system: T47D
# Assay: Cell panel screen (CellTiter-Glo)
# Assay type: cell-based, human
# Details: T47D (Breast), 20 micromolar, 72 hrs
# Method in brief: as §1
row,Structure (SMILES),Percent Inhibition [%]
1,O=C1c2c(O)cc(O)cc2OC(c2ccc(O)c(O)c2)C1O (stereo not drawn) [gl-34],-6

# Test system: T98G
# Assay: Cell panel screen (CellTiter-Glo)
# Assay type: cell-based, human
# Details: T98G (Brain), 20 micromolar, 72 hrs
# Method in brief: as §1
row,Structure (SMILES),Percent Inhibition [%]
1,O=C1c2c(O)cc(O)cc2OC(c2ccc(O)c(O)c2)C1O (stereo not drawn) [gl-34],1

# Test system: TCCSUP
# Assay: Cell panel screen (CellTiter-Glo)
# Assay type: cell-based, human
# Details: TCCSUP (Urinary bladder), 20 micromolar, 72 hrs
# Method in brief: as §1
row,Structure (SMILES),Percent Inhibition [%]
1,O=C1c2c(O)cc(O)cc2OC(c2ccc(O)c(O)c2)C1O (stereo not drawn) [gl-34],4

# Test system: ZR-75-30
# Assay: Cell panel screen (CellTiter-Glo)
# Assay type: cell-based, human
# Details: ZR-75-30 (Breast), 20 micromolar, 72 hrs
# Method in brief: as §1
row,Structure (SMILES),Percent Inhibition [%]
1,O=C1c2c(O)cc(O)cc2OC(c2ccc(O)c(O)c2)C1O (stereo not drawn) [gl-34],14

# From article PMC4450297, “Screening Active Compounds from Garcinia Species Native to China Reveals Novel Compounds Targeting the STAT/JAK Signaling Pathway” (BioMed Research International, 2015)
